Experimental data published in US5286740A, “Carbamoyl derivatives” (Imperial Chemical Industries PLC, priority 1989, dated 1994).

Test system: leukotriene LTD4 aerosol challenge in guinea-pigs
Assay: guinea-pig aerosol test (LTD4 aerosol challenge, onset of dyspnea)
Assay type: in vivo
Details: for ED50: Cavia porcellus, oral administration, solution in poly(ethylene glycol), predosed generally 1 hour before LTD4 aerosol, read-out: ED50 (protection against LTD4-induced dyspnea)
Method: According to this procedure, guinea-pigs are predosed with test compound as a solution in poly(ethylene glycol) (generally 1 hour) before an aerosol challenge of leukotriene LTD4 (starting with 2 ml of a 30 microgram/ml solution) and the effect of the test compound on the average time of leukotriene initiated change in breathing pattern (such as onset of dyspnea) recorded and compared with that in undosed-, control guinea-pigs. Percent protection engendered by a test compound was calculated from the time delay to the onset of dyspnea compared to that for control animals.

Row | Structure (SMILES) | ED50 | untoward side-effects (oral, at several multiples of the minimum effective dose)
1 | COc1cc(C(=O)NS(=O)(=O)c2ccccc2C)ccc1Cc1cn(C)c2ccc(C(=O)NC[C@H](C)CC(F)(F)F)cc12 [Example 2, (R)-3-Methoxy-4-[1-methyl-5-(2-methyl-4,4,4-trifluorobutylcarbamoyl)indol-3-ylmethyl]-N-(2-methylphenylsulfonyl)benzamide] | 1.1 µmol/kg | without any indication of untoward side-effects
2 | COc1cc(C(=O)NS(=O)(=O)c2ccccc2C)ccc1Cc1cn(C)c2ccc(C(=O)NCC3CCCC3)cc12 [reference compound] | 19.2 µmol/kg | –
